Experimental data reported in patent publication US10688093B2, “Methods, compositions, and uses of novel Fyn kinase inhibitors” (priority 2015, dated 2020).
pIC50: −log10 of the molar value.

What follows are compounds tested against full-length recombinant human FYN A (Homo sapiens (Human), UniProt P06241) (assay: ADP-Glo Kinase Assay of FYN kinase inhibition). Details: primary screen, initial compounds.
Sequence of full-length recombinant human FYN A (P06241 whole entry): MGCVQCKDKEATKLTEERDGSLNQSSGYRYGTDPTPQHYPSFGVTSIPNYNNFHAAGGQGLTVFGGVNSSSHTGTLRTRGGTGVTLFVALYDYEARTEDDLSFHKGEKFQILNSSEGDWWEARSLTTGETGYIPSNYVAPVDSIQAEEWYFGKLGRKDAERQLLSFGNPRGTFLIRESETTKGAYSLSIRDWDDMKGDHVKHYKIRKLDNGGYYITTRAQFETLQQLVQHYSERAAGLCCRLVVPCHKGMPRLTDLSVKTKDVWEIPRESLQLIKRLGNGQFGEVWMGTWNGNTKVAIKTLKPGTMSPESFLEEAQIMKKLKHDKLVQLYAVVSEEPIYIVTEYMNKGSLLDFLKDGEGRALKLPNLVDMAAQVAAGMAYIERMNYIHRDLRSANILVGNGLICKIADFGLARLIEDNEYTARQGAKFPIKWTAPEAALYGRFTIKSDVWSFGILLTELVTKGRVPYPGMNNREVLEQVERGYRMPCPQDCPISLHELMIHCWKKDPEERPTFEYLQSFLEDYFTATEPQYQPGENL
Type: biochemical
Description: The chemical library was comprised of the SoftFocus ATP-competitive hinge binding compounds described by Harris, C. J., Hill, R. D., Sheppard, D. W., et al., The Design and Application of Target-Focused Compound Libraries. Combinatorial Chemistry and High Throughput Screening 14:521-31 (2011). The specific pharmacore chemistries included SFK52 comprising 6-[R2]-3-[R1]imidazo[1,2-b] pyridazine compounds, SFK33 comprising N-(3-[R2] imidazo [1,2-b] pyridazin-6-yl) [R1] amine compounds, SFK49 comprising N-(5-[R2] imidazo [2,1-b][1,3,4] thiadiazol-2-yl)[R1]-amine compounds, SFK 40 comprising 5-[R2]-3-[R1] pyridin-2-amine compounds, SFK43 comprising 6-[R2]-3-[R1]imidazo[1,2-a]pyrazine compounds, and SFK63. The chemical structures of the initial 600 potential kinase inhibitors are presented in Table 3, with those chosen for additional analysis presented in Table 4. Comparison of the compounds presented in Table 1 and those of Tables 2, 3 and 4, illustrate the novelty of the chemical structures claimed herein.
FYN kinase (10 micrograms) was from the FYN A Kinase Enzyme System (V3571, Promega UK Ltd.), a full-length recombinant human FYN A containing an N-terminal GST tag of about 85 kDa, expressed by bacullovirus in […] insect cells, supplied at a concentration of 0.1 microgram/microliter in 5×reaction buffer. The FYN substrate, a 12 amino acid peptide of the sequence […], containing a single tyrosine phosphorylation site, was custom synthesized (Peptide Synthetics, Peptide Protein Research, Fareham, UK) and supplied as a 4 mg/ml aqueous solution. All other reagents were obtained from Sigma (Sigma-Aldrich, Gillingham, Dorset, UK), with the exception of UltraPure ATP (V9102, Promega UK Ltd.) and the ATP-competitive broad spectrum protein kinase inhibitor staurosporine (569397, Merck Millipore, Watford, Hertfordshire, UK), or as otherwise indicated.
The assay procedure determines the IC50 of each potential FYN kinase inhibitor by measuring the enzyme catalyzed ATP-dependent phosphorylation of the FYN substrate peptide. The ADP-Glo™ Kinase Assay is specifically designed to quantify kinase activity by measuring the ADP produced in the reaction The reaction buffer comprises 40 mM Tris.HCl (pH 7.5), 20 mM MgCl2, 0.1 mg/ml BSA and 5 microM DTT. Individual compounds within the chemical library were dissolved in DMSO at known concentrations. Briefly, 2.5 microliters of reaction buffer containing 3 picograms of FYN kinase and serial dilutions of each potential FYN kinase inhibitor (9 3-fold dilutions of a 10 micromolar top sample) are placed into each well of a 384 well microtiter plate and incubated at room temperature for 30 minutes. An additional 2.5 microliters of reaction buffer containing 100 picograms of the FYN substrate and 12.5 picomoles of ATP are then added to each well and the reaction carried out for 90 minutes at room temperature. The reactions are terminated by addition of 5 microliters of the ADP-Glo™ Reagent component of the ADP-Glo™ Kinase Assay kit to each well. The ADP-Glo™ Reagent comprises an ATP-dependent adenylate cyclase, an inorganic pyrophosphatase and an excess of staurosporine. The adenylate cyclase converts the remaining ATP to cAMP and pyrophospahte, the pyrophosphatase converts the pyrophosphate to phosphate and the staurosporine inhibits the activity of the FYN kinase, the net effect is to remove all residual ATP while preserving the ADP produced by FYN kinase. The terminated reactions are incubated for 40 minutes at room temperature, prior to addition of the Kinase Detection Reagent component of the ADP-Glo™ Kinase Assay kit to each well. The Kinase Detection Reagent comprises pyruvate kinase, phosphoenol pyruvate (PEP), luciferin and luciferase. The pyruvate kinase converts PEP to pyruvate and in the process generates ATP from the residual ADP present in the terminated reaction. […]
`COc1ccc(-c2cnc3ccc(NCc4cccc(Cl)c4)nn23)cn1` [229_0223_0311, N-[(3-chlorophenyl)methyl]-3-(6-methoxy-3-pyridyl)imidazo [1,2-b]pyridazin-6-amine] was tested, and the pIC50 was 5.08. `COc1cc(-c2cnc3ccc(NCc4cccc(Cl)c4)nn23)ccc1O` [229_0223_0314, 4-[6-[(3-chlorophenyl)methylamino]imidazo[1,2-b]pyridazin-3-yl]-2-methoxy-phenol] showed a pIC50 of 5.45. `Nc1ccc(-c2cnc3ccc(NCc4cccc(Cl)c4)nn23)cc1` [229_0223_0333, 3-(4-aminophenyl)-N-[(3-chlorophenyl)methyl]imidazo [1,2-b]pyridazin-6-amine] showed a pIC50 of 5.47. `OCc1ccc(-c2cnc3ccc(NCc4ccc(F)cc4)nn23)cc1` [229_0224_0285, [4-[6-[(4-fluorophenyl)methylamino]imidazo[1,2-b]pyridazin-3-yl]phenyl] methanol] showed a pIC50 of 5.61. Compound `CCCNc1ccc2ncc(-c3cccc(N)c3)n2n1` [229_0226_0005, 3-(3-aminophenyl)-N-propyl-imidazo[1,2-b]pyridazin-6-amine] has a pIC50 of 6.03. `CCCNc1ccc2ncc(-c3ccc4c(c3)OCO4)n2n1` [229_0226_0068, 3-(1,3-benzodioxol-5-yl)-N-propyl-imidazo[1,2-b]pyridazin-6-amine] gave a pIC50 of 5.69. `CCCNc1ccc2ncc(-c3ccsc3)n2n1` [229_0226_0074, N-propyl-3-(3-thienyl)imidazo [1,2-b]pyridazin-6-amine] gave a pIC50 of 5.39. Work on `CCCNc1ccc2ncc(-c3ccc(OC)c(OC)c3)n2n1` [229_0226_0079, 3-(3,4-dimethoxy-phenyl)-N-propyl-imidazo[1,2-b]pyridazin-6-amine] yielded a pIC50 of 6.28. In the case of `CCCNc1ccc2ncc(-c3cccc(NC(C)=O)c3)n2n1` [229_0226_0081, N-[3-[6-(propylamino)imidazo[1,2-b]pyridazin-3-yl]phenyl] acetamide], the pIC50 was 6.20. `CCCNc1ccc2ncc(-c3ccc(C(=O)O)cc3)n2n1` [229_0226_0140, 4-[6-(propylamino)imidazo[1,2-b]pyridazin-3-yl]benzoic acid] gave a pIC50 of 5.01. `CCCNc1ccc2ncc(-c3ccc(OC)cc3)n2n1` [229_0226_0280, 3-(4-methoxyphenyl)-N-propyl-imidazo[1,2-b]pyridazin-6-amine] showed a pIC50 of 5.27. With `CCCNc1ccc2ncc(-c3cccc(O)c3)n2n1` [229_0226_0284, 3-[6-(propylamino)imidazo[1,2-b]pyridazin-3-yl]phenol] the pIC50 was 6.03. Compound `CCCNc1ccc2ncc(-c3cccc(OC)c3)n2n1` [229_0226_4140, 3-(3-methoxyphenyl)-N-propyl-imidazo[1,2-b]pyridazin-6-amine] has a pIC50 of 5.65. Work on `CCCNc1ccc2ncc(-c3cccc(C(C)=O)c3)n2n1` [229_0226_4145, 1-[3-[6-(propylamino)imidazo[1,2-b]pyridazin-3-yl]phenyl] ethanone] yielded a pIC50 of 6.44. In the case of `O=C(O)c1ccc(-c2cnc3ccc(NCc4ccc(Cl)c(Cl)c4)nn23)cc1` [229_0227_0140, 4-[6-[(3,4-dichlorophenyl)methylamino]imidazo[1,2-b]pyridazin-3-yl]benzoic acid], the pIC50 was 6.00. `c1cc(-c2cnc3ccc(NCc4ccc5c(c4)OCO5)nn23)ccn1` [229_0236_0069, N-(1,3-benzodioxol-5-ylmethyl)-3-(4-pyridyl)imidazo [1,2-b]pyridazin-6-amine] gave a pIC50 of 6.42. Work on `Oc1ccc(-c2cnc3ccc(NCc4ccc5c(c4)OCO5)nn23)cc1` [229_0236_0080, 4-[6-(1,3-benzodioxol-5-ylmethyl-amino)imidazo[1,2-b]pyridazin-3-yl]phenol] yielded a pIC50 of 5.25. In the case of `c1ccc(-c2cnc3ccc(NCc4ccncc4)nn23)cc1` [229_0237_0061, 3-phenyl-N-(4-pyridylmethyl) imidazo[1,2-b]pyridazin-6-amine], the pIC50 was 5.39. For `c1ccc2oc(-c3cnc4ccc(NCc5ccncc5)nn34)cc2c1` [229_0237_0073, 3-(benzofuran-2-yl)-N-(4-pyridylmethyl) imidazo[1,2-b]pyridazin-6-amine], the pIC50 was 5.19. With `Nc1cccc(-c2cnc3ccc(NC4CCOCC4)nn23)c1` [229_0242_0005, 3-(3-aminophenyl)-N-tetrahydro-pyran-4-yl-imidazo[1,2-b]pyridazin-6-amine] the pIC50 was 6.13. `COc1ccc(-c2cnc3ccc(NC4CCOCC4)nn23)cc1OC` [229_0242_0079, 3-(3,4-dimethoxy-phenyl)-N-tetra-hydropyran-4-yl-imidazo[1,2-b]pyridazin-6-amine] was tested, and the pIC50 was 6.26. In the case of `CC(=O)Nc1cccc(-c2cnc3ccc(NC4CCOCC4)nn23)c1` [229_0242_0081, N-[3-[6-(tetrahydro-pyran-4-ylamino)imidazo[1,2-b]pyridazin-3-yl]phenyl] acetamide], the pIC50 was 6.23. `COc1cc(-c2cnc3ccc(NC4CCOCC4)nn23)cc(OC)c1OC` [229_0242_0087, N-tetrahydropyran-4-yl-3-(3,4,5-trimethoxy-phenyl) imidazo[1,2-b]pyridazin-6-amine] showed a pIC50 of 6.21. Work on `c1cc2cc(-c3cnc4ccc(NC5CCOCC5)nn34)ccc2[nH]1` [229_0242_0204, 3-(1H-indol-5-yl)-N-tetrahydropyran-4-yl-imidazo[1,2-b]pyridazin-6-amine] yielded a pIC50 of 5.93. `Nc1ccc(-c2cnc3ccc(NC4CCOCC4)nn23)cc1` [229_0242_0333, 3-(4-aminophenyl)-N-tetrahydropyran-4-yl-imidazo[1,2-b]pyridazin-6-amine] was tested, and the pIC50 was 5.51. Compound `COc1cccc(-c2cnc3ccc(NC4CCOCC4)nn23)c1` [229_0242_4140, 3-(3-methoxy-phenyl)-N-tetrahydro-pyran-4-yl-imidazo[l,2-b]pyridazin-6-amine] has a pIC50 of 6.06. With `COc1ccc(CNc2ccc3ncc(-c4ccc(O)c(OC)c4)n3n2)cc1` [229_0244_0314, 2-methoxy-4-[6-[(4-methoxyphenyl)methylamino]imidazo[1,2-b]pyridazin-3-yl]phenol] the pIC50 was 5.40. For `OCCCNc1ccc2ncc(-c3ccc4c(c3)OCO4)n2n1` [229_0248_0068, 3-[[3-(1,3-benzodioxol-5-yl)imidazo[1,2-b]pyridazin-6-yl]amino] propan-1-ol], the pIC50 was 6.03. `OCCCNc1ccc2ncc(-c3ccc4[nH]ccc4c3)n2n1` [229_0248_0204, 3-[[3-(1H-indol-5-yl)imidazo[1,2-b]pyridazin-6-yl]amino] propan-1-ol] was tested, and the pIC50 was 5.57. With `OCCCNc1ccc2ncc(-c3cccc(C(F)(F)F)c3)n2n1` [229_0248_0312, 3-[[3-[3-(trifluoro-methyl)phenyl]imidazo[1,2-b]pyridazin-6-yl]amino] propan-1-ol] the pIC50 was 5.47. Compound `COc1cc(-c2cnc3ccc(NCCCO)nn23)ccc1O` [229_0248_0314, 4-[6-(3-hydroxy-propylamino)imidazo[1,2-b]pyridazin-3-yl]-2-methoxy-phenol] has a pIC50 of 6.48. For `OCCCNc1ccc2ncc(-c3ccc(Oc4ccccc4)cc3)n2n1` [229_0248_1029, 3-[[3-(4-phenoxyphenyl)imidazo[1,2-b]pyridazin-6-yl]amino] propan-1-ol], the pIC50 was 5.26. In the case of `CC(C)[C@@H](CO)Nc1ccc2ncc(-c3cccc(N)c3)n2n1` [229_0254_0005, (2S)-2-[[3-(3-aminophenyl)imidazo[1,2-b]pyridazin-6-yl]amino]-3-methyl-butan-1-ol], the pIC50 was 5.74. `CC(C)[C@@H](CO)Nc1ccc2ncc(-c3ccc4c(c3)OCO4)n2n1` [229_0254_0068, (2S)-2-[[3-(1,3-benzodioxol-5-yl)imidazo[1,2-b]pyridazin-6-yl]amino]-3-methyl-butan-1-ol] showed a pIC50 of 5.74.
